For experiment [1], the system named is endogenously expressed tenascin C in the cultured cell lines. The experiment in a line: Immunocytochemistry of cultured cancer cell lines with biotin-labeled peptide. In kind it is binding, human. The conditions noted are these: 1 mM biotin-labeled peptide, 1 hr, room temperature; for staining of SW620 cells: SW620 (medium tenascin C expression). The procedure: FIGS. 3A-3C represent binding pattern of the selected peptides to cultured cells. Cultured cells of SW620 (FIG. 3A), U251 (FIG. 3B) and HCT116 (FIG. 3C) were incubated at room temperature for 1 hr with 1 mM of biotin-labeled peptide aptamers (#1, #2), control peptide (NC), or peptide aptamer #2 (1 mM) plus anti-tenascin C antibody (1:1000 dilution). Nuclei were counterstained with Hoechst33258. Arrows indicate examples of positively stained cells. Magnification, ×1000 (FIG. 3A and FIG. 3C), ×630 (FIG. 3B). Cells were grown on coverslips, fixed with 3.7% paraformaldehyde for 15 min at room temperature, and permeabilized with 0.5% Triton X-100 in PBS. They were washed and blocked in 10% normal calf serum, 0.5% gelatin in PBS for 30 min at room temperature. Staining was carried out with biotin-labeled peptide for 1 hr at room temperature. Secondary TEXAS RED-conjugated streptavidin (Calbiochem, La Jolla, Calif., 1:200 dilution) was applied at room temperature for 50 min in the dark. The cells were counterstained with Hoechst33258. The present inventors utilized U251, SW620 and HCT116 cells as model cell lines for high, medium and no expression of tenascin C protein, respectively (FIG. 1). The biotin-labeled peptide aptamers were used to test whether they recognized the endogenously expressed tenascin C in the cultured cell lines. […] There was no signal with the negative peptide or when aptamer was omitted. Since the peptide aptamer #2 have high frequency and observed a higher level of staining, we used it in subsequent work. The level of staining with U251 cells was higher than with SW620 cells, which may reflect a higher level of tenascin C expression.

In experiment [2] the test system is tenascin C. The experiment in a line: Immunofluorescence on frozen tumor xenograft tissue sections. The conditions noted are these: for staining of U118MG-derived tumor xenograft tissue sections: U118MG glioblastoma xenograft in nude mice, 10 μM biotin-labeled peptide or antibody 1:1000, O/N 4° C. In kind it is binding, human. The procedure: FIGS. 4A-4C represent immunofluorescence detection for binding of #2 peptide aptamer to U118MG-derived tumor xenograft tissue. Frozen tissue sections were incubated at 4° C. for O/N with anti-tenascin C antibody (1:1000 dilution) (FIG. 4A), anti-β-catenin antibody (1:100 dilution) (FIG. 4B), 10 μM biotin-labeled peptide aptamer (#2) or scrambled peptide (#2 scr) (FIG. 4C). Tissues were counterstained with Hoechst33258. Arrows indicate examples of positively stained cells. Magnification, ×630. Results using a xenograft mouse model with HT-29 colon cancer cells are also shown (FIG. 4D).
A tumor xenograft was established by subcutaneous injection of 2×10^6 HT29 or U118MG cells into one flank of nude mice. When the tumor diameter reached approximately 9-10 mm, the mice were killed, and the tumor tissue was obtained and […] for storage at −80° C. Frozen sections 8-10 μm thick were cut, fixed with 3.7% paraformaldehyde for 15 min at room temperature, and permeabilized with 0.5% Triton X-100 in PBS. The cells were washed and blocked with 10% fetal bovine serum, 10% non fat dry milk and 3% BSA in PBS for 2 hrs at room temperature. They were stained with anti-tenascin C antibody (BC24; Sigma-Aldrich, Saint Louis, Miss., 1:1000 dilution), anti-β-catenin antibody (clone 14; BD Transduction Laboratories, Germany, 1:100 dilution), or biotin-labeled peptide for O/N at 4° C. Secondary FITC-conjugated anti-mouse IgG antibody (Sigma-Aldrich, Saint Louis, Miss., 1:1000 dilution) or TEXAS RED-conjugated streptavidin (Calbiochem, La Jolla, Calif., 1:1000 dilution) was used for 1 hr at room temperature in the dark. Cells were counterstained with Hoechst33258.

Experiment [3] concerns tenascin C-induced cell rounding. In words: Adhesion assay on fibronectin/tenascin C substratum. Particulars: glioblastoma cells on fibronectin/tenascin C substratum, 18 hrs. In kind it is cell-based, human. On the procedure:
(§1) FIGS. 6A-6D represent reversion of tenascin-C-induced cell morphology and migration by the peptide aptamer. […] Magnification, ×100. FIG. 6B was the results that numbers of round cell was scored and presented as percentage. Four independent experiments were performed. FIG. 6C represented U118MG migration with #2 peptides or scrambled peptides. The data are representative of three independent experiments. SD, P<0.001 relative to no treated samples. […] Whole cell extract were prepared and with anti-β-catenin antibody. Anti-β-actin was used as control.
Microtiter plates (6-well, Nunc, Roskilde, Denmark) were coated with 1 μg/cm^2 of fibrobectin or fibronectin and tenascin C for overnight at 4° C. The noncoated plastic surface was blocked with 1% heat-inactivated BSA in PBS. Before plating, cells were serum starved for 18 hrs in DMEM and trypsinized. Following soybean trypsin inhibitor treatment (100 μg/ml in PBS), cells were resuspended in serum-free medium and counted by hematocytometer. Approximately 1×10^5 cells were plated in each well and the selected peptide aptamer or scramble peptide was treated for 18 hrs, cells were observed under microscope.

For experiment [4], the system named is tenascin C-induced cell migration, U118MG cells. The experiment in a line: Wound scratch assay. The class given is cell-based, human. Particulars: serum free medium, 18 hrs. The procedure: as §1
U118MG cells were grown until they become confluent on a 35 mm dish and were serum starved for 18 hrs in DMEM. A straight line was drawn with a marker on the outer surface of the dish bottom and an artificial wound was made by using a pipet tip. The dish was rinsed and then incubated with the serum free medium in the presence of #2 peptides or #2 scramble peptides. After 18 hrs incubation, cells were counted.

Experiment [5] deals with T1, tenascin C (Homo sapiens, UniProt P24821).
T1 construct: a tissue microarray prepared with tissues from 52 lung cancer patients; from tissue; host or cells: paraffin-embedded human lung tumor and normal lung tissue (Seoul National University Bundang Hospital)
T1 sequence (P24821 23-2201): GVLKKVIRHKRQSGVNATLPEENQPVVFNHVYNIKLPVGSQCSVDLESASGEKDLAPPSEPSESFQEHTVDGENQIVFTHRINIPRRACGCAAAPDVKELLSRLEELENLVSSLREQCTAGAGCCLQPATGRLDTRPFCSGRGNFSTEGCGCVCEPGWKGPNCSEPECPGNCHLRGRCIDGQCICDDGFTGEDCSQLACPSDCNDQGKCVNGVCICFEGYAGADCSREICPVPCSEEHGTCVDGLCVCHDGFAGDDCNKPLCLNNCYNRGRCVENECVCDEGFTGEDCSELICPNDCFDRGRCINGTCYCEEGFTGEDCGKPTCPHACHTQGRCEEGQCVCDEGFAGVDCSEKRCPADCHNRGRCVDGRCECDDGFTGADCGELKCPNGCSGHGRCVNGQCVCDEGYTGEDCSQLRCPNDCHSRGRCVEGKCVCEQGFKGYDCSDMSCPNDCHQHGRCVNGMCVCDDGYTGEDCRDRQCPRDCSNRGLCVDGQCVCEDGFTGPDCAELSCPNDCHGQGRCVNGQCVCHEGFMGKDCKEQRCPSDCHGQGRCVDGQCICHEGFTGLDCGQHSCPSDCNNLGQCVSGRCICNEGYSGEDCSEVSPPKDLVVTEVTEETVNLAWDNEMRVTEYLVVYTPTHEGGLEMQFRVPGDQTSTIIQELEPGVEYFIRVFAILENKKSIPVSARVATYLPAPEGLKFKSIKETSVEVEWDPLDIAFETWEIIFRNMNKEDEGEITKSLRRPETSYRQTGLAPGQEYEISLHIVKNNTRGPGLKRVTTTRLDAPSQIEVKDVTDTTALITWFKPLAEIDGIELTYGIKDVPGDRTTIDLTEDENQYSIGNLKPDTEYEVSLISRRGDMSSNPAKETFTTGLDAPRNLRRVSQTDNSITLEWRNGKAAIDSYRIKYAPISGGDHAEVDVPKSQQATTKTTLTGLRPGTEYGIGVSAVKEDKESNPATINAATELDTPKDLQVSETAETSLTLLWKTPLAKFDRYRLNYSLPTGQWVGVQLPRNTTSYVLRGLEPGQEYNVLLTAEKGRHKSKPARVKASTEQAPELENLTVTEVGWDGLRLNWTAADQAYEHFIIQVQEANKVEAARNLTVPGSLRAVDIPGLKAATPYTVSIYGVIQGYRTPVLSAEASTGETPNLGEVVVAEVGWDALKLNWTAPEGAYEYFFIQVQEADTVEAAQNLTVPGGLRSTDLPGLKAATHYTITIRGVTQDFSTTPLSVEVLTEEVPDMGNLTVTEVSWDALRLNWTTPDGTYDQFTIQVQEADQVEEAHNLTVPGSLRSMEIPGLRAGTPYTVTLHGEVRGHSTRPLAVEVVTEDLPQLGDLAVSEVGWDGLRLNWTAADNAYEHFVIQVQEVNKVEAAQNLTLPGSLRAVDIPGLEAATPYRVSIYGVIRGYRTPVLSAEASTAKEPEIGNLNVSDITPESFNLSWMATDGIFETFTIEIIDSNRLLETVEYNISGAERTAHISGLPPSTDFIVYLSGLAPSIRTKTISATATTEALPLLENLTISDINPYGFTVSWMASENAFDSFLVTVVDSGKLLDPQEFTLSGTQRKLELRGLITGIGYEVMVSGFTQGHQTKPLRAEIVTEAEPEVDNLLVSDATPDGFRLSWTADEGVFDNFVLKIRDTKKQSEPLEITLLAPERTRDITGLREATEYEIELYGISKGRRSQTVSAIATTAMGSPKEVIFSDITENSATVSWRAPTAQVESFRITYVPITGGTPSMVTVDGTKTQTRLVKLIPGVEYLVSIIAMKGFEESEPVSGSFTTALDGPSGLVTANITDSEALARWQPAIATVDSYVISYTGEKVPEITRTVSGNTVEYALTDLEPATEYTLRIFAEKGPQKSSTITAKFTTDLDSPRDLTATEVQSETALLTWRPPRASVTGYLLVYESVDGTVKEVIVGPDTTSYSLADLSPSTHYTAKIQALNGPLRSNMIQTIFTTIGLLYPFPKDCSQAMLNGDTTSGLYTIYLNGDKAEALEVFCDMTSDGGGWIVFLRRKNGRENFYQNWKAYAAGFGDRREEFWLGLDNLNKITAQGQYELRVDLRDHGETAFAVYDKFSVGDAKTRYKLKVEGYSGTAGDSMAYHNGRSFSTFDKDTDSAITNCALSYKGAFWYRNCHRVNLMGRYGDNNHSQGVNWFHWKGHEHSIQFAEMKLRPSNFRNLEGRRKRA
In words: Immunofluorescence analysis of lung tissue microarray. In kind it is binding. On the procedure:
FIGS. 5A-5D represent detection for binding of peptide aptamer #2 to tumor patient lung tissue. Paraffin-embedded lung tissue from an adenocarcinoma (FIG. 5A), squamous cell carcinoma (FIG. 5B), bronchioloalveolar carcinoma (FIG. 5C) and normal (FIG. 5D) tissue was incubated at 4° C. for O/N with anti-tenascin C antibody (1:1000 dilution) or with biotin-labeled peptide aptamer #2 (10 μM). Tissues were counterstained with Hoechst33258. Magnification, ×630.
The lung tissue microarray was constructed from archived paraffin blocks at Seoul National University Bundang Hospital. It is composed of 36 adenocarcinomas, 15 squamous cell carcinomas, 1 bronchioloalveolar carcinoma, and 1 normal lung. Sections were dewaxed in xylene and rehydrated in graded concentrations of ethanol and distilled water. For antigen retrieval, sections were heated for 20 min in Target Retrieval Solution, Tris/EDTA (pH 9; Dako) using a pressure cooker. Staining was carried out with anti-tenascin C antibody (BC24; Sigma-aldrich, Saint Louis, Mo., 1:1000 dilution) or biotin-labeled peptide for O/N at 4° C. Secondary anti-mouse FITC-conjugated IgG antibody or TEXAS RED-conjugated streptavidin was used for 1 hr at room temperature in the dark. Cells were counterstained with Hoechst33258.

In the case of FHKPFFPKGSARGGG [peptide aptamer #1], the “staining of SW620 cells” value in experiment [1] is “characteristic staining pattern of spots or long streaks in a polarized region of the plasma membrane”.
For the sequence “VSPKSHLKAHPFGGG [#2 scramble, scrambled form of peptide #2, control, reference compound]”, the “staining of U118MG-derived tumor xenograft tissue sections” value with tenascin C [2] is “no significant staining”. In experiment [3], the “effect on tenascin C-induced rounding morphology” value is “no significant change”. Moreover, in experiment [4], the “effect on tenascin C-induced cell migration” value is on record as “No significant reduction in cell migration”.
Consider FHKHKSPALSPVGGG [peptide aptamer #2], for which the “staining of HCT116 cells” value in experiment [1] (HCT116 (no tenascin C expression)) is listed as “no signal was detected”. Moreover, the “staining of SW620 cells” value in experiment [1] was “characteristic staining pattern of spots or long streaks in a polarized region of the plasma membrane”. The “staining of U251 cells” value in experiment [1] (U251 (high tenascin C expression)) is given as “stained two distinct areas of the U251 cells”. In addition, in the experiment on tenascin C [2] (HT-29 colon cancer xenograft (does not express tenascin C)), the “staining of HT-29 tumor xenograft tissue sections” value is on record as “no aptamer signal was detected”. The “staining of U118MG-derived tumor xenograft tissue sections” value in the experiment on tenascin C [2] was “same prominent pattern of staining in the forms of spots and blobs”. Further, in the experiment with tenascin C [5] (1 normal lung, 10 μM biotin-labeled peptide, O/N 4° C.), the “staining of normal lung tissue” value is reported as “No peptide aptamer #2 staining was detected”. Moreover, the “staining of lung cancer patient tissues” value in the experiment with tenascin C [5] (52 lung cancer patients, 10 μM biotin-labeled peptide or antibody 1:1000, O/N 4° C.) is on record as “striking similarity of the staining patterns”. Moreover, the “effect on tenascin C-induced rounding morphology” value in experiment [3] is reported as “significant reversion of tenascin C-induced rounding morphology”. Further, in experiment [4], the “effect on tenascin C-induced cell migration” value was “significantly reduced”.

Values taken from US9018351B2, “Peptide aptamers against tenascin C” (Industry-Academy Cooperation Foundation, priority 2007, dated 2015).
